Literature values, collected in patent US20160220687A1, “METALLOPROTEINASE-CLEAVABLE ALPHA-AMANITIN-DENDRIMER CONJUGATES AND METHOD OF TREATING CANCER” (priority 2015, published 2016).

What was measured:
[1] = test system: MCF7 breast cancer cells
[2] = test system: advanced gastric cancer; details: patients with advanced gastric cancer, compared to placebo
[3] = test system: liver and kidney; details: intravenous or intraperitoneal administration
[4] = test system: B16F10 melanoma cells; details: mice injected with B16F10 melanoma cells

Compound: N#Cc1ccc(C(c2ccc(C#N)cc2)n2cncn2)cc1 [Letrozole]
- MMP2 and MMP9 levels [1]: efficient reduction

Compound: CNC(=O)[C@@H](NC(=O)[C@H](CC(C)C)[C@H](O)C(=O)NO)C(C)(C)C [Marimastat]
- disease free survival [2]: significant improvement
- overall survival [2]: significant improvement

Compound: CC[C@H](C)[C@@H]1NC(=O)CNC(=O)[C@@H]2Cc3c([nH]c4cc(O)ccc34)[S@+]([O-])C[C@H](NC(=O)CNC1=O)C(=O)N[C@@H](CC(N)=O)C(=O)N1C[C@H](O)C[C@H]1C(=O)N[C@@H]([C@@H](C)[C@@H](O)CO)C(=O)N2 [alpha-amanitin]
- pathological effects on the liver and kidney [3]: serious pathological effects on the liver and kidney

Compound: TIMP1: an inhibitor of MMP9
- number of pulmonary metastases [4]: reduced
